Reference: patent publication US9101564B2, “Heparanase activity inhibitor, wrinkle improving agent containing same, and pharmaceutical composition” (Shiseido Company, Ltd., priority 2009, dated 2015)

Target: T1, heparanase (Homo sapiens, UniProt Q9Y251)
T1 construct: the supernatant was recovered as cell extract; endogenous in cells; host or cells: A431 (human epithelial carcinoma cells), Triton X-100 lysate
T1 sequence (Q9Y251 158-543 limits assumed): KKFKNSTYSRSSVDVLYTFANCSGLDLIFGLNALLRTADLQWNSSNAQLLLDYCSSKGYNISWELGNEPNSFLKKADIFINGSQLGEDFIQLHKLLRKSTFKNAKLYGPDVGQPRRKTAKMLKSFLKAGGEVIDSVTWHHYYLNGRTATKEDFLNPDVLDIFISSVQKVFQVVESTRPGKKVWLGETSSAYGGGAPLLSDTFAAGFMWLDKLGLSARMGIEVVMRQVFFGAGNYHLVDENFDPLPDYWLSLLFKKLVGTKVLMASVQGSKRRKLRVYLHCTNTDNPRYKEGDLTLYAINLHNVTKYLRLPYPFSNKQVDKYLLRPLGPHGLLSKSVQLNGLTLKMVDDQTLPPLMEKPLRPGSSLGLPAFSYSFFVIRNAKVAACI
T1 sequence (Q9Y251 36-109 limits assumed): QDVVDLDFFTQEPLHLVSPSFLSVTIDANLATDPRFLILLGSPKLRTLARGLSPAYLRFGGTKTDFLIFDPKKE
Assay: Heparanase activity inhibition rate, A431 cell extract on biotinylated heparan sulfate-immobilized plate
Assay type: biochemical
Conditions: A431 cell extract 500 μg/mL, 37° C., 2 hours, DMSO 5%
Experimental: A431 cells (human epithelial carcinoma cells) were cultured in 10% serum-containing DMEM (Dulbecco's modified Eagle medium). The cultured cells were solubilized in lysis buffer (50 mM Tris, 0.5% TritonX-100, 0.15 M sodium chloride, pH 4.5) and collected with a scraper, and then pipetted and allowed to stand on ice for 30 minutes. This was followed by centrifugation at 10,000 rpm for 10 minutes to remove the insoluble portion, and the supernatant was recovered as cell extract. The amount of protein in the cell extract was measured with a BCA protein assay kit (BCA Protein Assay Kit, PIERCE, Calif. 46141).
The A431 cell extract was then diluted to 500 μg/mL with assay buffer (50 mM HEPES, 50 mM sodium acetate, 150 mM sodium chloride, 9 mM calcium chloride, 0.1% BSA). Next, the test compound was dissolved in DMSO and added to the diluted cell extract in proportions of 0.0005 mass %, 0.005 mass % and 0.05 mass %, and these were mixed to prepare sample solutions (DMSO final concentration: 5%). A control solution was prepared by mixing DMSO with the diluted cell extract to a final concentration of 5%. The sample solution and control solution were each seeded in a biotinylated heparan sulfate-immobilized plate at 100 μL/well. […] After further rinsing 3 times with PBS-T, TMB reagent (BIO-RAD, 172-1066) was added at 100 μL/well and reacted therewith, the reaction was terminated with 1N sulfuric acid, and the absorbance at 475 nm (OD475) was measured.
Also, DMSO was added to a serial diluent prepared with the aforementioned A431 cell extract assay buffer (cell extract concentrations: 500 μg/mL, 50 μg/mL, 5 μg/mL, 0.5 μg/mL), to a final concentration of 5% without addition of the test compound, to obtain a mixture (solution for calibration curve). The solution for the calibration curve was subjected to treatment by the same procedure described above, from seeding of the biotinylated heparan sulfate-immobilized plate, and the OD475 was measured. […]

Structure (SMILES): CC(C)Cc1ccc(O)cc1O [4-Isobutylresorcinol, 4-isobutylresorcinol]
- Heparanase activity inhibition rate (added concentration 0.0005 mass %): 37.64%
- Heparanase activity inhibition rate (added concentration 0.005 mass %): 75.98%
- Heparanase activity inhibition rate (added concentration 0.05 mass %): 94.74%
